In the assay the test system is mice subjected to controlled cortical impact injury. Briefly: Rotarod motor test after CCI. The class given is in vivo. The method, then: All animal procedures were approved by the Animal Research Committee at Cheng Hsin General Hospital (Animal permit number CHIACUC 101–08), and all procedures complied with the Guide for the Care and Use of Laboratory Animals published by the US National Institutes of Health (NIH Publication No. 85–23, revised 1996). Animals were housed under a 12-h light/dark cycle and at constant temperature (21–25°C) and humidity (45–50%). They were allowed free access to pellet chow and water. TBI in mice was induced by a CCI injury model as previously described. Briefly, 8-week-old male C57BL/6 mice (weighing 22–25 g) were anesthetized through the use of intraperitoneal injection of sodium pentobarbital (65 mg/kg; Rhone Merieux, Harlow, UK) and placed in a stereotaxic frame. A 5 mm craniotomy was performed over the right parietal cortex, centered on the coronal suture and 0.1 mm lateral to the sagittal suture, and injury to dura was avoided. […] Body temperature was monitored throughout the surgery by a rectal probe; temperature was maintained at 37.0±0.5°C using a heated pad. […]
Three sets of experiments were performed. […] To determine the optimal dose of salidroside, a pilot study was performed using 2 different doses (20 and 50 mg/kg) administered 10 min after injury, and neurological deficits and tissue damage were evaluated as the main outcomes. […]
Background: Falling from the rotarod earlier than controls is read as motor impairment.

In the case of `OC[C@H]1O[C@@H](OCCc2ccc(O)cc2)[C@H](O)[C@@H](O)[C@@H]1O` [SALD, salidroside], the “rotarod performance versus vehicle group” value (20 mg/kg ip 10 min after CCI, whole observation period (28 days), all P<0.05) is “significantly better performance”. In addition, the “rotarod outcome versus vehicle group” value (50 mg/kg ip 10 min after CCI, only at days 14 and 28, P<0.05) is given as “significantly improved”.

The values above are taken from paper PMC3454376, “Salidroside Improves Behavioral and Histological Outcomes and Reduces Apoptosis via PI3K/Akt Signaling after Experimental Traumatic Brain Injury” (PLoS ONE, 2012).
